Legend:
[1] = target: T1, human carboxylesterase (CES1) (Homo sapiens, UniProt P23141); assay: In vitro esterase activity on ester pro-drug Cy5 derivatives; assay type: in vitro ADME; details: 0.25 μM CES1, 37° C., 8 hours
T1 sequence (P23141 18-567): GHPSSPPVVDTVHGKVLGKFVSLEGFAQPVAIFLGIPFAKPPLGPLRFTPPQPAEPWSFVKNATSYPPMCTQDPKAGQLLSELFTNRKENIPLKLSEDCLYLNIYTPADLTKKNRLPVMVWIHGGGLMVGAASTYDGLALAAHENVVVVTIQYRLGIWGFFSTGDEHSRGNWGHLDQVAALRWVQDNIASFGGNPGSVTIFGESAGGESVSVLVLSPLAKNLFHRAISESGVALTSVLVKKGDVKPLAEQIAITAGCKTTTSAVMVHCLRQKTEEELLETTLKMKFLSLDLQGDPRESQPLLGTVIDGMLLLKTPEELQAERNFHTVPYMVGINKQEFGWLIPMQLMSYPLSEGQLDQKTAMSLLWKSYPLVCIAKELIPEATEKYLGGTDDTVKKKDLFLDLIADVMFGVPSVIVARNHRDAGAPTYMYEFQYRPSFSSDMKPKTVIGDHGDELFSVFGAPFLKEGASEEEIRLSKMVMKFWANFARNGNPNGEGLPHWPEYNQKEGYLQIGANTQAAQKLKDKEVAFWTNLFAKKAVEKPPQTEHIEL
Method: In vitro esterase activity on ester pro-drug Cy5 derivatives of CypD inhibitors. Into PCR tubes, ester compound (6 μM) and either buffer only, CES1 (0.25 μM), or CES2 (0.25 μM) was diluted in 100 mM Tris-HCl buffer, pH 7.4, with a final DMSO concentration of 1%. Samples were maintained on a PCR block at 37° C. for 8 hours. After incubation, samples were diluted with 20 μL acetonitrile and analyzed by LC-MS at Harvard's Center for Mass Spectroscopy. Di-ester, mono-ester, and di-acid abundances were quantified by total ion count of the primary isotope, and the three compounds were summed and each one expressed as a fraction of the total sum.

[2] = target: T2, CypD (Homo sapiens, UniProt P30405); assay: Chymotrypsin coupled prolyl-isomerase assay; assay type: biochemical
T2 construct: PPIF (UniProtKB Entry P30405: res 45-207); made in house; host or cells: E. coli BL21(DE3)
T2 sequence (P30405 45-207): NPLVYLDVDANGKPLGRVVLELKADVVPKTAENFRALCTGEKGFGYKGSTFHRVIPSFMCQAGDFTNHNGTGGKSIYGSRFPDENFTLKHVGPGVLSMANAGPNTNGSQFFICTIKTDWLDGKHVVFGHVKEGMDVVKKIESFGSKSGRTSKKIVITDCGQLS
Method: IC50 values were calculated to be the value at which 50% inhibition was achieved on each compound's non-linear regression fitted curve.

[3] = system: HeLa cells; assay: Fluorescence microscopy on HeLa cells; assay type: cell-based, human; details: Cy5 labeled compound 6 μM
Method in brief: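 HeLa cells in DMEM with 10% FBS, seeded 24 h earlier to ~80% confluence, were stained for 1 h at 37 °C with 6 µM Cy5-labelled compound in HEPES-buffered Krebs-Ringer, pH 7.2. Hoechst 33342 and MitoTracker Green were then added for 15 min. After washing, live cells were imaged in Alexa 488, Alexa 647 and Hoechst channels.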

[4] = system: A549, HeLa, HEK293T, HepG2, and MEFs; assay: Cellular esterase activity on ester pro-drug Cy5 derivatives; assay type: in vitro ADME, human and mouse; details: 6 μM, 48 hours (36 hours for HepG2)
Method: Cellular esterase activity on ester pro-drug Cy5 derivatives of CypD inhibitors. Into 96-well clear, flat-bottom TC-treated plates, cells were seeded in DMEM supplemented with 10% FBS for HEK293T, HeLa, and MEFs, F-12K supplemented with 10% FBS for A549, or MEM supplemented with 10% FBS for HepG2, 24 hours prior at a density where wells were ˜70% confluent at time of experiment. Media was removed and cells were incubated with 100 μL of mixture containing each Cy5-conjugated compound (6 μM) in their respective media at 1% DMSO for 48 hours (36 hours for HepG2) at 37° C. at 5% CO2. Supernatant was removed, and cells were washed 2 times with 100 μL of PBS pH 7.4 (Gibco). Cells were then lysed for 15 minutes with 30 μL of 10 mM Tris-HCl pH 8.0 buffer containing 0.05% SDS. Lysates were diluted with 100 μL acetonitrile and filtered. Lysates were analyzed by LC-MS at Harvard's Center for Mass Spectroscopy. Di-ester, mono-ester, and di-acid abundances were quantified by total ion count of the primary isotope, and the three compounds were summed and each one expressed as a fraction of the total sum.

CypD prolyl-isomerase inhibition (in words) [2]: did not potently inhibit
Compound: CCOC(=O)C(Cc1ccc(-c2ccc(C[C@H]3NC(=O)[C@@]4(Cc5ccccc5)CCCN(C4)C(=O)/C=C/C(=O)NCC[C@H](C(=O)NCCNC(=O)CCCCCN4\C(=C/C=C/C=C/C5=[N+](C)c6ccccc6C5(C)C)C(C)(C)c5ccccc54)NC(=O)Cc4ccccc4CNC3=O)cc2)cc1)C(=O)OCC [*B52-Et-Cy5]
hydrolysis of ester prodrug by CES1 [1]: hydrolyzed to their active dicarboxylate forms
mitochondrial localization (overlap with Mitotracker Green) [3]: good mitochondrial localization
plasma membrane / mammalian cell permeability [3]: Strong mammalian cell permeability and mitochondrial localization
intracellular conversion to di-acid by endogenous esterases [4]: readily converted to the corresponding di-acid
